Data published in US11466011B2, “Compounds and their use as inhibitors of N-myristoyl transferase” (Imperial College Innovations Limited, priority 2015, dated 2022).
pEC50, pIC50: −log10 of the molar value. Where a name gives a salt, the structure may show the parent alone.

Legend:
[1] = target: Leishmania donovani (Ld) N-myristoyl transferase (Leishmania donovani, UniProt D0AB09); assay: Fluorescence-based NMT assay (a), adapted version, LdNMT; type: biochemical
[2] = target: T1, Leishmania major (Lm) N-myristoyl transferase (Leishmania major, UniProt Q4Q5S8); assay: Fluorescence-based NMT assay (a), adapted version, LmNMT; type: biochemical
T1 sequence (Q4Q5S8 1-421): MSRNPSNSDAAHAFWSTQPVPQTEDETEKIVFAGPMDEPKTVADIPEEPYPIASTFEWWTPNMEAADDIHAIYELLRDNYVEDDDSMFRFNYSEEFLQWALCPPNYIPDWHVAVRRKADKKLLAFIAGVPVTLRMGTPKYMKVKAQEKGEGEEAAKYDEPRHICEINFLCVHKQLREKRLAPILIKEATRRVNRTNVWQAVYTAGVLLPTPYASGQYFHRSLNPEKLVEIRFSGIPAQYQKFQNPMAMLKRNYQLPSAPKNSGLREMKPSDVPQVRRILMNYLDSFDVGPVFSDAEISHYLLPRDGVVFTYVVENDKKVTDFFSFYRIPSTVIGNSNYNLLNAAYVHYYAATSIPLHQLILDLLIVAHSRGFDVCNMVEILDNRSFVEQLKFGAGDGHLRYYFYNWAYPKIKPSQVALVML

HeLa and/or BL-41 cells = assay: Metabolic activity assay (MTS assay) (d), HeLa and/or BL-41; type: cell-based; conditions: Homo sapiens, 72 h
Description: Example NMT inhibitors of the invention were tested for activity in an in vitro metabolic activity assay using human cell lines (HeLa and BL-41). Compounds having activity in inhibiting metabolic activity in the assay are expected to be useful as agents for preventing and/or treating cancer, by virtue of being inhibitors of human NMT1 and/or NMT2.
Hela cells were grown in DMEM media (supplemented with 10% FBS) and seeded in a 96-well plate 24 h prior to treatment. BL-41 cells were grown in RPMI-1640 media (supplemented with 10% FBS) and seeded directly before treatment. Cell suspensions were prepared by adjusting the cell density to the appropriate concentration (as stated in the table below) and 50 μL of the cell suspension was transferred to wells B-G in columns 2-11 of a 96-well plate.
100 μL of growth media containing 0.2% DMSO was added to wells B-G in columns 2 and 11 as positive controls and 100 μL of growth media containing Puromycin (3 μg/mL; final concentration in the plate 2 μg/mL) was added to wells B-G in column 3 as a negative control. 7 concentrations of inhibitor solution were prepared using example NMT inhibitors (same final percentage of DMSO, dilution factor=3 starting from 15 μM or 150 μM) and 100 μL of inhibitor solution was added to wells B-G in columns 4-10 (final concentration of example NMT inhibitor in the plate starting from 10 μM or 100 μM; total volume of the wells=150 μL).
After 72 h, 20 μL MTS reagent (Promega, prepared according to the supplier protocol) was added to each well of the 96-well plate. The plate was incubated at 37° C. (2 hours for HeLa cells and 4 hours for BL-41 cells) and absorbance was measured at 490 nm with a Spectra Max M2/M2e microplate reader. The average absorbance value of the negative control (Puromycin-treated cells) was subtracted from each value and the metabolic activity was calculated as a percentage relative to the positive control (DMSO-treated cells). EC50s were calculated using Grafit 7.0 (Erithacus Software Ltd, UK).

HeLa Ohio cells = assay: Cell viability of inhibitor-treated uninfected cells (assay (f)); conditions: MTS 2 days post-treatment
HRV16 [3] = assay: Rhinovirus production assay (e), virus titre (TCID50); type: cell-based, human HeLa Ohio cell line; conditions: Enterovirus
Description: Example 30 of the invention was tested for activity in an in vitro rhinovirus production assay using the human HeLa Ohio cell line. Compounds having activity in inhibiting rhinovirus production in the assay are expected to be useful as agents for preventing and/or treating asthma or chronic obstructive pulmonary disease (COPD), by virtue of being inhibitors of human NMT1 and/or NMT2, which are thought to myristoylate rhinovirus capsid subunit VP4 and be essential for virus assembly. Hela Ohio cells were grown in growth media (DMEM supplemented with 10% FBS, 1% Sodium Bicarbonate and 25 mM Hepes) and seeded 24 h prior to infection in a 12-well plate at a cell density allowing to obtain 100% confluent cells (5.95×10^5 cells per well) the next day. Confluent cells were treated with different concentrations of inhibitor, as indicated in the table below, each in triplicate. The Example 30 inhibitor solution was prepared by serial dilutions in growth media and the DMSO control contained the same percentage of DMSO as in the solution with the highest concentration of inhibitor. […] Cells were then infected with HRV16 at an MOI of 1 in the presence of the inhibitor. The virus stock (2.492×10^7 PFU/ml) was diluted in growth media to obtain a virus solution at 5.95×10^5 PFU/ml. This virus dilution was used to dilute the inhibitor as previously described in order to obtain virus solutions with the inhibitor concentrations indicated in the table below. The cell media was as replaced by 1 ml per well of virus+inhibitor solution and the plate was incubated for 1 h at room temperature to allow virus adsorption onto the cells. The cells were then washed with PBS and the media was replaced with 1 ml per well of growth media+inhibitor, prepared as previously described. […] The media and cells form each well were then transferred to 1.5 ml tubes and centrifuged for 1 min at 16000×g to remove cell debris. The virus titres from the cleared supernatants were determined by measuring the 50% Tissue Culture Infective Dose (TCID50). Each sample was diluted in a series of 10-fold dilutions in TCID50 media (DMEM supplemented with 2% FBS, 1% Sodium Bicarbonate, 25 mM Hepes and 1% Penicillin-Streptomycin) and 50 μl of each of the dilutions 1/10 to 1/10^−8 were added onto a 96-well plate, in 6 replicates. HeLa Ohio cells at a cell density of 1×10^5 cells/ml in TCID50 media were then added to each well (150 μl per well). Some wells with cells alone (without sample) were included as control. […] The appearance of characteristic cytopathic effect, compared to control cells, was then assessed by observation of the plates on an inverted microscope and the virus titres were subsequently calculated by the method of Reed and Muench.

HRV16 [4] = assay: Rhinovirus production assay 2 (f), virus-induced cytopathic effect; type: cell-based, human HeLa Ohio cell line; conditions: 2 days post-infection, HeLa Ohio cells
Description: Examples 30, 35, 49 and 50 of the invention was tested for activity in a rhinovirus replication assay in the human HeLa Ohio cell line. Compounds having activity in inhibiting rhinovirus production in the assay are expected to be useful as agents for preventing and/or treating asthma or chronic obstructive pulmonary disease (COPD), by virtue of being inhibitors of human NMT1 and/or NMT2, which are thought to myristoylate rhinovirus capsid subunit VP4 and be essential for virus assembly. HeLa Ohio cells were grown in growth media (DMEM supplemented with 10% FBS, 1% Sodium Bicarbonate and 25 mM Hepes) and seeded 24 hours prior to infection in a 96-well plate at a cell density allowing to obtain 100% confluent cells (5.6×10^4 cells per well) the next day. Confluent cells were infected with HRV16 at an MOI of 0.05 in the presence of different concentrations of inhibitor, as indicated in the table below, each in duplicate. The virus stock (5.6×10^6 PFU/ml) was diluted in growth media to obtain a virus solution at 1.4×10^4 PFU/ml. This virus dilution was used to dilute the inhibitor by serial dilutions in order to obtain virus solutions with the inhibitor concentrations indicated in the table below. The DMSO control contained the same percentage of DMSO as in the solution with the highest concentration of inhibitor.

Leishmania donovani (Ld) N-myristoyl transferase, sequence (D0AB09 entry or part of it): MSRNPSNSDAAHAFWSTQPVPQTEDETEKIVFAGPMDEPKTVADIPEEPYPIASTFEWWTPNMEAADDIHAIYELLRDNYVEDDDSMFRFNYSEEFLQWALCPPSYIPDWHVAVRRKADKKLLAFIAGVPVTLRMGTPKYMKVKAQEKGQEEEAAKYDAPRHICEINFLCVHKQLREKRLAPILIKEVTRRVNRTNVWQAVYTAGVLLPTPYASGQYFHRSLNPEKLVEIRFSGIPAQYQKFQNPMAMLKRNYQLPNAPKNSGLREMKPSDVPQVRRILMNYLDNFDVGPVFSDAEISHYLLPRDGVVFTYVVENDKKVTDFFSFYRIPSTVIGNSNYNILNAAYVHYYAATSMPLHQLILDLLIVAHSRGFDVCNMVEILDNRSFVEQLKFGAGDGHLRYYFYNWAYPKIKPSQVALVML

Structure (SMILES) | melting point | pEC50 (HeLa and/or BL-41 cells) | pEC50 (HRV16 [3]) | pIC50 [1] | pIC50 [2] | cell viability of inhibitor-treated but uninfected cells (HeLa Ohio cells) | HRV16 production (virus-induced cytopathic effect, MTS) (HRV16 [4])
Cc1nn(C)c(C)c1CCOc1cc(F)ccc1-c1ccc2[nH]nc(CN(C)C)c2c1 [Example 7] | – | – | – | 7.00 to 9.00 | – | – | –
CN(C)Cc1n[nH]c2ccc(-c3ccc(F)cc3OCCc3cccnc3)cc12 [Example 8] | – | – | – | 7.00 to 9.00 | 7.00 to 9.00 | – | –
Cc1nn(C)c(C)c1CCOc1c(-c2ccc3c(c2)c(CN(C)C)nn3C)ccc(F)c1F [Example 49] | – | 7.00 to 9.00 | 7.00 to 8.00 | – | – | without affecting cell viability | inhibit HRV16 production in a dose-dependent manner

More lines, main results first:

melting point | pEC50 (HeLa and/or BL-41 cells) | pEC50 (HRV16 [3]) | Structure (SMILES) | pIC50 [1] | pIC50 [2] | cell viability of inhibitor-treated but uninfected cells (HeLa Ohio cells) | HRV16 production (virus-induced cytopathic effect, MTS) (HRV16 [4])
230 to 233 °C | – | – | Cc1nn(C)c(C)c1CCOc1cc(F)ccc1-c1ccc2c(c1)c(CN)nn2C (as salt: salt) [Example 31, (5-(4-fluoro-2-(2-(1,3,5-trimethyl-1H-pyrazol-4-yl)ethoxy)phenyl)-1-methyl-1H-indazol-3-yl)methanamine] | – | – | – | –
– | 7.00 to 9.00 | 7.00 to 8.00 | Cc1nn(C)c(C)c1CCOc1c(F)cccc1-c1ccc2c(c1)c(CN(C)C)nn2C [Example 30] | – | – | without affecting cell viability | inhibit HRV16 production in a dose-dependent manner
– | – | 7.00 to 8.00 | CNCc1nn(C)c2ccc(-c3cccc(F)c3OCCc3c(C)nn(C)c3C)cc12 [Example 35, 1-(5-(3-fluoro-2-(2-(1,3,5-trimethyl-1H-pyrazol-4-yl)ethoxy)phenyl)-1-methyl-1H-indazol-3-yl)-N-methylmethanamine] | – | – | without affecting cell viability | inhibit HRV16 production in a dose-dependent manner
– | 7.00 to 9.00 | 7.00 to 8.00 | CNCc1nn(C)c2ccc(-c3ccc(F)c(F)c3OCCc3c(C)nn(C)c3C)cc12 [Example 50, 1-(5-(3,4-difluoro-2-(2-(1,3,5-trimethyl-1H-pyrazol-4-yl)ethoxy)phenyl)-1-methyl-1H-indazol-3-yl)-N-methylmethanamine] | – | – | without affecting cell viability | inhibit HRV16 production in a dose-dependent manner
